In US20210228560A1 (Centogene IP GmbH, priority 2011, published 2021):
Changes are numbered by the printed parent chain. “Also recorded” adds a separate entry of the source. Read-outs that look alike come from different tables or passages of the source.

Columns and labels:
[1] = target: GLA mutants (alpha-galactosidase A) (Homo sapiens, UniProt P06280, G328A); conditions: GLA mutant G328A; Ambroxol in combination with DGJ
[2] = target: GLA mutants (alpha-galactosidase A) (Homo sapiens, UniProt P06280, R301Q); conditions: GLA mutant R301Q; Ambroxol in combination with DGJ
Chain of GLA mutants (alpha-galactosidase A) (Homo sapiens, UniProt P06280, R301Q) (P06280 32-429 R301Q): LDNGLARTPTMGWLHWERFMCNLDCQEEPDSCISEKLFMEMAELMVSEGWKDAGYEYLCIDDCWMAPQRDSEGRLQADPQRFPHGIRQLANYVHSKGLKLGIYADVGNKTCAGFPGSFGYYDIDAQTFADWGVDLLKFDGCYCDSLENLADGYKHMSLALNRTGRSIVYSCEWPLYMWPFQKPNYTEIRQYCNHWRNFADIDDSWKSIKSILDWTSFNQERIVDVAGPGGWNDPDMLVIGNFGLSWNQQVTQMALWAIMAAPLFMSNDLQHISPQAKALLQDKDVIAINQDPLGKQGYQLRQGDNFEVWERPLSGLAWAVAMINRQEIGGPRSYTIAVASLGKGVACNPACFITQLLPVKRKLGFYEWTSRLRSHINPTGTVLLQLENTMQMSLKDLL

[3] = target: GLA mutants (alpha-galactosidase A) (Homo sapiens, UniProt P06280, A156V); conditions: GLA mutant A156V; Ambroxol in combination with DGJ
Chain of GLA mutants (alpha-galactosidase A) (Homo sapiens, UniProt P06280, A156V) (P06280 32-429 A156V): as the sequence (P06280 32-429 R301Q) above, with A125V, Q270R counted along it

[4] = target: GLA mutants (alpha-galactosidase A) (Homo sapiens, UniProt P06280, M51I); conditions: GLA mutant M51I; Ambroxol in combination with DGJ
Chain of GLA mutants (alpha-galactosidase A) (Homo sapiens, UniProt P06280, M51I) (P06280 32-429 M51I): as the sequence (P06280 32-429 R301Q) above, with M20I, Q270R counted along it

[5] = target: T1, Wild type α-galactosidase A (Replagal®, agalsidase alfa) (Homo sapiens, UniProt P06280); test: Inhibition of agalsidase alfa (Replagal), cell free; assay type: biochemical; conditions: for reduction of the enzyme activity, Ambroxol only: FIG. 8 inlay
T1 construct: purchased Shire Pharmaceuticals Replagal
T1 sequence (P06280 32-429): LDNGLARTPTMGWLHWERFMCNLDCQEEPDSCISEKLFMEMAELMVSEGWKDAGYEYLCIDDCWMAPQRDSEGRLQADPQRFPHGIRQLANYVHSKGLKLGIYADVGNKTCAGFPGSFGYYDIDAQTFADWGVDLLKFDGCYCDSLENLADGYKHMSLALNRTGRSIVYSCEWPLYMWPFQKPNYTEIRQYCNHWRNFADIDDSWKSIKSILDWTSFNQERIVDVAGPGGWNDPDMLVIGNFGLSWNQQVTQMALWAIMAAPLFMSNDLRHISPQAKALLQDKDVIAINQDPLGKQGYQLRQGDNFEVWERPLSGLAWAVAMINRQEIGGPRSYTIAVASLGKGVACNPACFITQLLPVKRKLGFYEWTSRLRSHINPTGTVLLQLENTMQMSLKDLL

wild type GLA = target: T2, wild type GLA (Homo sapiens, UniProt P06280); assay type: cell-based
T2 sequence (P06280 32-429): T1 sequence (P06280 32-429)
Description: A bacterial clone containing the full length cDNA of α-galactosidase A (IRAUp969H0320D, aligned to accession no. NM_000169.2 (GeneBank)) was received form ImaGenes GmbH, Berlin, Germany. Amplification was performed with the primers 5′-[…] […]-3′ (SEQ ID NO:1) and 5′-[…]-3′ (SEQ ID NO:2) introducing unique restriction sites for BamHI and BstBI. The PCR was taken out using cloned Pfu DNA polymerase (Stratagene). The cDNA was subcloned into pGEM-T Easy vector (Promega). Prior to ligation, the cDNA insert was incubated with Taq polymerase (Qiagen) to add a poly (A) overhang at the 3′-end for TA-cloning. For expression, the α-Gal A cDNA was ligated into target vector pcDNA3.1/V5-His6 (Invitrogen).

GLA[A156V] = target: T3, GLA[A156V] (Homo sapiens, UniProt P06280, A156V); assay type: cell-based; conditions: untreated = 1.0, FIG. 5A
T3 sequence (P06280 32-429 A156V): T1 sequence (P06280 32-429) with A125V

Chain of GLA mutants (alpha-galactosidase A) (Homo sapiens, UniProt P06280, G328A) (P06280 32-429 G328A): as the sequence (P06280 32-429 R301Q) above, with Q270R, G297A counted along it

additive Ambroxol effect demonstrated [1]: * (*p≤0.1)
additive Ambroxol effect demonstrated [2]: **** (****p≤0.005)
additive Ambroxol effect demonstrated [3]: **** (****p≤0.005)
additive Ambroxol effect demonstrated [4]: ** (**p≤0.05)
effect of Ambroxol on the inhibition of WT α-galactosidase A by DGJ ([5]; 40 μM Ambroxol): no effect
reduction of the enzyme activity, Ambroxol only ([5]; pH 4.5): No reduction
reduction of the enzyme activity, Ambroxol only ([5]; pH 6.7): No reduction
enzyme activity of the GLA of the wild type (wild type GLA; 40 μM Ambroxol alone, FIG. 1): increase in enzyme activity
inhibition of wild type GLA (wild type GLA; Ambroxol dose-response, FIG. 2): not inhibiting
Ambroxol titer at or beyond which local maximum or saturation of wild type GLA activity (wild type GLA; FIG. 2): > 60 µM
EC50 (wild type GLA; read-out: EC50 of increase of wild type GLA activity): 21.2 µM
increase of GLA[A156V] activity (GLA[A156V]; 8 μM DGJ and 40 μM Ambroxol): 3.8 fold
increase of GLA[A156V] activity (GLA[A156V]; 20 μM DGJ and 40 μM Ambroxol): up to 8 fold
Compound: Nc1c(Br)cc(Br)cc1CN[C@H]1CC[C@H](O)CC1 [Ambroxol, 2-amino-3,5-dibromo-N-[trans-4-hydroxycyclohexyl]benzylamine]
effect of Ambroxol alone on the enzyme in the cell free assay ([5]; cell free): not inhibited; also recorded: neither an inhibitory nor a stimulating effect
